From PubChem BioAssay (NCI)
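Values below derive from 48-hour exposures of cells grown in 96-well plates, with endpoints linearly interpolated between the two concentrations bracketing the appropriate inhibition level. Here, GI50 denotes the concentration required for 50% inhibition of growth. Definition used: TGI = concentration required for complete inhibition of growth.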

Assays:
Assay in all cases: growth of human tumour cells (NCI), 48 h
786-0 renal = tested on: 786-0 renal
RXF 393 renal = tested on: RXF 393 renal
SF-268 CNS = tested on: SF-268 CNS
MDA-MB-231 breast = tested on: MDA-MB-231 breast
NCI/ADR-RES ovarian = tested on: NCI/ADR-RES ovarian
CAKI-1 renal = tested on: CAKI-1 renal
HOP-62 NSCLC = tested on: HOP-62 NSCLC
HOP-92 NSCLC = tested on: HOP-92 NSCLC
SK-MEL-5 melanoma = tested on: SK-MEL-5 melanoma
OVCAR-5 ovarian = tested on: OVCAR-5 ovarian
SF-539 CNS = tested on: SF-539 CNS
SR leukemia = tested on: SR leukemia
SK-OV-3 ovarian = tested on: SK-OV-3 ovarian
HCT-116 colon = tested on: HCT-116 colon
T-47D breast = tested on: T-47D breast
HCC-2998 colon = tested on: HCC-2998 colon
HCT-15 colon = tested on: HCT-15 colon
A498 renal = tested on: A498 renal
CCRF-CEM leukemia = tested on: CCRF-CEM leukemia
OVCAR-4 ovarian = tested on: OVCAR-4 ovarian
PC-3 prostate = tested on: PC-3 prostate
OVCAR-3 ovarian = tested on: OVCAR-3 ovarian
UACC-257 melanoma = tested on: UACC-257 melanoma
RPMI-8226 leukemia = tested on: RPMI-8226 leukemia
SF-295 CNS = tested on: SF-295 CNS
MCF7 breast = tested on: MCF7 breast
UO-31 renal = tested on: UO-31 renal
HL-60(TB) leukemia = tested on: HL-60(TB) leukemia
TK-10 renal = tested on: TK-10 renal
OVCAR-8 ovarian = tested on: OVCAR-8 ovarian
HS 578T breast = tested on: HS 578T breast
LOX IMVI melanoma = tested on: LOX IMVI melanoma
MDA-MB-435 = tested on: MDA-MB-435
M14 melanoma = tested on: M14 melanoma
U251 CNS = tested on: U251 CNS
UACC-62 melanoma = tested on: UACC-62 melanoma
COLO 205 colon = tested on: COLO 205 colon
HT29 colon = tested on: HT29 colon
EKVX NSCLC = tested on: EKVX NSCLC
NCI-H23 lung = tested on: NCI-H23 lung
MALME-3M melanoma = tested on: MALME-3M melanoma
SW-620 colon = tested on: SW-620 colon
K-562 leukemia = tested on: K-562 leukemia
SNB-75 CNS = tested on: SNB-75 CNS
A549 NSCLC = tested on: A549 NSCLC
ACHN renal = tested on: ACHN renal
MOLT-4 leukemia = tested on: MOLT-4 leukemia
NCI-H522 lung = tested on: NCI-H522 lung
NCI-H226 lung = tested on: NCI-H226 lung
NCI-H460 lung = tested on: NCI-H460 lung
DU-145 prostate = tested on: DU-145 prostate
SN12C renal = tested on: SN12C renal
SNB-19 CNS = tested on: SNB-19 CNS
IGROV1 ovarian = tested on: IGROV1 ovarian
BT-549 breast = tested on: BT-549 breast
KM12 colon = tested on: KM12 colon
SK-MEL-2 melanoma = tested on: SK-MEL-2 melanoma

With C#CC#CC#CC#CC#CC#CC#CC#CC[C@@H]1OC[C@@H](COC(=O)O[C@@H](C(=O)O[C@H]2C[C@@]3(O)[C@@H](OC(=O)c4ccccc4)[C@@H]4[C@]5(OC(C)=O)CO[C@@H]5C[C@H](O)[C@@]4(C)C(=O)[C@H](OC(C)=O)C(=C2C)C3(C)C)[C@@H](NC(=O)c2ccccc2)c2ccccc2)O1 as the compound, how does the GI50 (786-0 renal) read?
Its GI50 is 1090 nM.

And the TGI (786-0 renal)?
Its TGI is over 33.3 µM.

What about the GI50 (RXF 393 renal) of the same compound?
Its GI50 is 471 nM.

What about the TGI (RXF 393 renal) of the same compound?
Its TGI is 2390 nM.

And the GI50 (SF-268 CNS)?
Its GI50 is 593 nM.

And the TGI (SF-268 CNS)?
The TGI was over 33.3 µM.

And the GI50 (MDA-MB-231 breast)?
The GI50 was 650 nM.

And the TGI (MDA-MB-231 breast)?
The TGI was over 33.3 µM.

What about the GI50 (NCI/ADR-RES ovarian) of the same compound?
Its GI50 is over 33.3 µM.

And the TGI (NCI/ADR-RES ovarian)?
The TGI was over 33.3 µM.

What about the GI50 (CAKI-1 renal) of the same compound?
Its GI50 is 477 nM.

What about the TGI (CAKI-1 renal) of the same compound?
The TGI was over 33.3 µM.

And the GI50 (HOP-62 NSCLC)?
Its GI50 is 1130 nM.

What about the TGI (HOP-62 NSCLC) of the same compound?
The TGI was over 33.3 µM.

And the TGI (HOP-92 NSCLC)?
The TGI was over 33.3 µM.

What about the GI50 (SK-MEL-5 melanoma) of the same compound?
The GI50 was 830 nM.

What about the TGI (SK-MEL-5 melanoma) of the same compound?
Its TGI is over 9.15 µM.

What about the GI50 (OVCAR-5 ovarian) of the same compound?
The GI50 was 333 nM.

What about the TGI (OVCAR-5 ovarian) of the same compound?
The TGI was over 33.3 µM.

And the GI50 (SF-539 CNS)?
Its GI50 is 248 nM.

What about the TGI (SF-539 CNS) of the same compound?
Its TGI is 1990 nM.

What about the GI50 (SR leukemia) of the same compound?
Its GI50 is 160 nM.

And the TGI (SR leukemia)?
The TGI was over 33.3 µM.

What about the GI50 (SK-OV-3 ovarian) of the same compound?
The GI50 was 897 nM.

What about the TGI (SK-OV-3 ovarian) of the same compound?
The TGI was over 33.3 µM.

What about the GI50 (HCT-116 colon) of the same compound?
The GI50 was 91.9 nM.

And the TGI (HCT-116 colon)?
Its TGI is over 33.3 µM.

What about the GI50 (T-47D breast) of the same compound?
The GI50 was 335 nM.

What about the TGI (T-47D breast) of the same compound?
Its TGI is over 33.3 µM.

And the GI50 (HCC-2998 colon)?
Its GI50 is 289 nM.

What about the TGI (HCC-2998 colon) of the same compound?
Its TGI is over 17.5 µM.

What about the GI50 (HCT-15 colon) of the same compound?
Its GI50 is 1110 nM.

What about the TGI (HCT-15 colon) of the same compound?
Its TGI is over 33.3 µM.

What about the GI50 (A498 renal) of the same compound?
The GI50 was 332 nM.

What about the TGI (A498 renal) of the same compound?
Its TGI is over 6.73 µM.

What about the GI50 (CCRF-CEM leukemia) of the same compound?
The GI50 was 354 nM.

And the TGI (CCRF-CEM leukemia)?
The TGI was over 33.3 µM.

And the GI50 (OVCAR-4 ovarian)?
Its GI50 is over 8.99 µM.

And the TGI (OVCAR-4 ovarian)?
Its TGI is over 33.3 µM.

What about the GI50 (PC-3 prostate) of the same compound?
Its GI50 is 345 nM.

And the TGI (PC-3 prostate)?
The TGI was over 33.3 µM.

What about the GI50 (OVCAR-3 ovarian) of the same compound?
The GI50 was 142 nM.

What about the GI50 (UACC-257 melanoma) of the same compound?
Its GI50 is over 15.7 µM.

And the TGI (UACC-257 melanoma)?
Its TGI is over 33.3 µM.

And the GI50 (RPMI-8226 leukemia)?
Its GI50 is 109 nM.

And the TGI (RPMI-8226 leukemia)?
Its TGI is over 33.3 µM.

And the GI50 (SF-295 CNS)?
Its GI50 is 579 nM.

What about the TGI (SF-295 CNS) of the same compound?
Its TGI is 2410 nM.

What about the GI50 (MCF7 breast) of the same compound?
The GI50 was 87.2 nM.

And the TGI (MCF7 breast)?
Its TGI is over 33.3 µM.

And the GI50 (UO-31 renal)?
The GI50 was 3.39 µM.

And the TGI (UO-31 renal)?
The TGI was over 33.3 µM.

And the GI50 (HL-60(TB) leukemia)?
Its GI50 is 163 nM.

What about the TGI (HL-60(TB) leukemia) of the same compound?
The TGI was over 33.3 µM.

And the GI50 (TK-10 renal)?
Its GI50 is 2250 nM.

And the TGI (TK-10 renal)?
The TGI was over 33.3 µM.

What about the GI50 (OVCAR-8 ovarian) of the same compound?
Its GI50 is 460 nM.

And the TGI (OVCAR-8 ovarian)?
Its TGI is over 33.3 µM.

And the GI50 (HS 578T breast)?
Its GI50 is 239 nM.

What about the TGI (HS 578T breast) of the same compound?
Its TGI is over 8.14 µM.

And the GI50 (LOX IMVI melanoma)?
Its GI50 is 93.5 nM.

And the TGI (LOX IMVI melanoma)?
Its TGI is over 33.3 µM.

And the GI50 (MDA-MB-435)?
The GI50 was 39.4 nM.

What about the TGI (MDA-MB-435) of the same compound?
Its TGI is 111 nM.

And the GI50 (M14 melanoma)?
Its GI50 is 165 nM.

And the TGI (M14 melanoma)?
Its TGI is 1380 nM.

And the GI50 (U251 CNS)?
Its GI50 is 316 nM.

What about the TGI (U251 CNS) of the same compound?
The TGI was over 33.3 µM.

What about the GI50 (UACC-62 melanoma) of the same compound?
The GI50 was 815 nM.

What about the TGI (UACC-62 melanoma) of the same compound?
Its TGI is over 33.3 µM.

What about the GI50 (COLO 205 colon) of the same compound?
The GI50 was 181 nM.

What about the TGI (COLO 205 colon) of the same compound?
Its TGI is over 33.3 µM.

And the GI50 (HT29 colon)?
The GI50 was 95 nM.

What about the TGI (HT29 colon) of the same compound?
The TGI was over 33.3 µM.

What about the GI50 (EKVX NSCLC) of the same compound?
The GI50 was 2250 nM.

What about the TGI (EKVX NSCLC) of the same compound?
Its TGI is over 33.3 µM.

What about the GI50 (NCI-H23 lung) of the same compound?
Its GI50 is 1040 nM.

What about the TGI (NCI-H23 lung) of the same compound?
Its TGI is over 33.3 µM.

And the GI50 (MALME-3M melanoma)?
The GI50 was 721 nM.

And the TGI (MALME-3M melanoma)?
Its TGI is over 33.3 µM.

And the GI50 (SW-620 colon)?
Its GI50 is 188 nM.

And the TGI (SW-620 colon)?
Its TGI is over 33.3 µM.

And the GI50 (K-562 leukemia)?
The GI50 was 170 nM.

What about the TGI (K-562 leukemia) of the same compound?
The TGI was over 33.3 µM.

And the GI50 (SNB-75 CNS)?
Its GI50 is 59.9 nM.

And the TGI (SNB-75 CNS)?
The TGI was 469 nM.

And the GI50 (A549 NSCLC)?
Its GI50 is 285 nM.

And the TGI (A549 NSCLC)?
Its TGI is over 33.3 µM.

What about the GI50 (ACHN renal) of the same compound?
The GI50 was 2020 nM.

And the TGI (ACHN renal)?
The TGI was over 33.3 µM.

What about the GI50 (MOLT-4 leukemia) of the same compound?
The GI50 was 362 nM.

What about the TGI (MOLT-4 leukemia) of the same compound?
The TGI was over 33.3 µM.

And the GI50 (NCI-H522 lung)?
The GI50 was 367 nM.

And the TGI (NCI-H522 lung)?
Its TGI is over 17.6 µM.

And the GI50 (NCI-H226 lung)?
The GI50 was over 9.56 µM.

What about the TGI (NCI-H226 lung) of the same compound?
The TGI was over 33.3 µM.

What about the GI50 (NCI-H460 lung) of the same compound?
Its GI50 is 101 nM.

And the TGI (NCI-H460 lung)?
The TGI was over 33.3 µM.

And the GI50 (DU-145 prostate)?
Its GI50 is 502 nM.

What about the TGI (DU-145 prostate) of the same compound?
The TGI was over 33.3 µM.

And the GI50 (SN12C renal)?
Its GI50 is 1030 nM.

And the TGI (SN12C renal)?
The TGI was over 33.3 µM.

What about the GI50 (SNB-19 CNS) of the same compound?
The GI50 was 1080 nM.

And the TGI (SNB-19 CNS)?
The TGI was over 33.3 µM.

What about the GI50 (IGROV1 ovarian) of the same compound?
The GI50 was 404 nM.

What about the TGI (IGROV1 ovarian) of the same compound?
Its TGI is over 33.3 µM.

And the GI50 (BT-549 breast)?
The GI50 was 639 nM.

And the TGI (BT-549 breast)?
The TGI was over 33.3 µM.

What about the GI50 (KM12 colon) of the same compound?
Its GI50 is 191 nM.

And the TGI (KM12 colon)?
Its TGI is over 33.3 µM.

And the GI50 (SK-MEL-2 melanoma)?
Its GI50 is 1280 nM.

And the TGI (SK-MEL-2 melanoma)?
Its TGI is over 33.3 µM.
